Several values for one entry are separate records, joined by “and”; a condition that tells them apart may be missing. Equal values may be shown once. Read-outs that look alike come from different tables or passages of the source.
Key:
[1] = bolus IV 5 mpk, cited from earlier work; for Brain conc / Plasma conc: WO 03/074053 data converted to nM; for Brain-to-plasma Ratio: WO 03/074053 data
[2] = Plasma, brain and liver levels after oral gavage in C57BL/6 mice; type: in vivo, mouse; settings: C57BL/6 mice; for Brain/Liver Ratio / Kp at 1 h / concentration at 1 h / concentration at 1 hr: 1 hr; for Kp at 1 h: brain and plasma
From the text: Below, we first report the experimental detail for preparation and isolation of Compound III, and then the biological, in vivo data is described.

[3] = Plasma, brain and liver levels after bolus IV administration in nude mice
[4] = mouse, in vivo, iv; for Brain-to-Liver Ratio: nude, 12 mg/kg
in vivo = settings: nude, mouse, iv
[5] = system: PrP T44 Tau transgenic mice; settings: treatment for 3 months; cited from earlier work
[6] = system: paclitaxel-induced peripheral neuropathy; settings: rats; cited from earlier work

CCC[C@H]1C(=O)C(C)(C)[C@@H](O)CC(=O)O[C@H](/C(C)=C/c2csc(C)n2)CC=C(C)CCC[C@H](C)[C@@H]1O (single isomer, unassigned) [Compound III, 4,8-dihydroxy-16-(1-methyl-2-(2-methyl-4-thiazolyl)-ethenyl)-1-oxa-7-(1-propyl)-5,5,9,13-tetramethyl-cyclohexadec-13-ene-2,6-dione]
Brain conc ([1]; 0.17 hr): 580 nM | Plasma conc ([1]; 0.17 hr): 1540 nM | Brain-to-plasma Ratio ([1]; 0.17 hr): 0.4 | Brain conc ([1]; 0.67 hr): 1150 nM | Plasma conc ([1]; 0.67 hr): 580 nM | Brain-to-plasma Ratio ([1]; 0.67 hr): 2 | Brain-to-plasma Ratio ([1]; […]): 1.3 | brain retention ([2]; oral 10 and 35 mpk, no measureable brain levels at 24 h): poor brain retention | brain half life compared with epothilone D ([2]; oral 35 mpk, FIG. 9): significantly shorter than epothilone D | Brain/Liver Ratio ([2]; oral gavage 10 mpk): 0.1 | Brain conc ([2]; oral gavage 10 mpk, 5 hr): (3.7 nM) | Brain conc ([2]; oral gavage 10 mpk, 7 hr): (3.7 nM) | Brain conc ([2]; oral gavage 10 mpk, 24 hr): (3.7 nM) | Plasma conc ([2]; oral gavage 10 mpk, 24 hr): (0.2 nM) | Brain/Liver Ratio ([2]; oral gavage 35 mpk): 0.4 | Brain conc ([2]; oral gavage 35 mpk, 24 hr): <LLQ | Kp at 1 h ([2]; mouse, 10 mg/kg, oral gavage 10 mpk, read-out: Brain/Plasma Ratio): 0.8 | Kp at 1 h ([2]; mouse, 35 mg/kg, oral gavage 35 mpk, read-out: Brain/Plasma Ratio): 2.3 | concentration at 1 h ([2]; mouse, brain, 10 mg/kg, oral gavage 10 mpk, read-out: Brain conc): 9.6 nM | concentration at 1 hr ([2]; mouse, brain, 35 mg/kg, oral gavage 35 mpk, read-out: Brain conc): 67.7 nM | concentration at 5 hr ([2]; mouse, brain, 35 mg/kg, oral gavage 35 mpk, 5 hr, read-out: Brain conc): 4.6 nM | Kp at 5 h ([2]; mouse, brain/plasma, 35 mg/kg, oral gavage 35 mpk, 5 hr, read-out: Brain/Plasma Ratio): 1.4 | concentration at 1 h ([2]; mouse, plasma, 10 mg/kg, oral gavage 10 mpk, read-out: Plasma conc): 12.3 nM | concentration at 5 hr ([2]; mouse, plasma, 10 mg/kg, oral gavage 10 mpk, 5 hr, read-out: Plasma conc): 1.3 nM | concentration at 7 hr ([2]; mouse, plasma, 10 mg/kg, oral gavage 10 mpk, 7 hr, read-out: Plasma conc): 1.2 nM | concentration at 1 hr ([2]; mouse, plasma, 35 mg/kg, oral gavage 35 mpk, read-out: Plasma conc): 47.7 nM | concentration at 5 hr ([2]; mouse, plasma, 35 mg/kg, oral gavage 35 mpk, 5 hr, read-out: Plasma conc): 3 nM | concentration at 24 hr ([2]; mouse, plasma, 35 mg/kg, oral gavage 35 mpk, 24 hr, read-out: Plasma conc): 0.7 nM

C/C(=C\c1csc(CN)n1)[C@@H]1C[C@@H]2O[C@]2(C)CCC[C@H](C)[C@H](O)[C@@H](C)C(=O)C(C)(C)[C@@H](O)CC(=O)O1 [Compound II]
Brain-to-Liver Ratio ([3]; bolus IV 1 mpk, 6 hr): 0.01 | Brain-to-Liver Ratio ([3]; bolus IV 1 mpk, 24 hr): 0.02 | brain levels relative to peripheral tissue (ratio of brain-to-liver compound levels) ([3]; bolus IV, particularly at later times): modest brain levels relative to peripheral tissue | concentration at 6 h ([3]; nude, mouse, in vivo, iv, 1 mg/kg, Brain conc, bolus IV 1 mpk, 6 hr): 6.8 nM | concentration at 24 h ([3]; nude, mouse, in vivo, iv, 1 mg/kg, Brain conc, bolus IV 1 mpk, 24 hr): 1.3 nM | Kp at 6 h ([3]; nude, mouse, in vivo, iv, 1 mg/kg, Brain-to-plasma Ratio, bolus IV 1 mpk, 6 hr): 2.1 | Kp at 24 h ([3]; nude, mouse, in vivo, iv, 1 mg/kg, Brain-to-plasma Ratio, bolus IV 1 mpk, 24 hr): 1.2 | concentration at 6 h ([3]; nude, mouse, in vivo, iv, 1 mg/kg, Plasma conc, bolus IV 1 mpk, 6 hr): 3 nM | concentration at 24 h ([3]; nude, mouse, in vivo, iv, 1 mg/kg, Plasma conc, bolus IV 1 mpk, 24 hr): 1 nM

C/C(=C\c1csc(C)n1)[C@@H]1C[C@@H]2O[C@]2(C)CCC[C@H](C)[C@H](O)[C@@H](C)C(=O)C(C)(C)[C@@H](O)CC(=O)N1 [Ixabepilone, (1S,3S,7S,10R,11S,12S,16R)-7,11-dihydroxy-8,8,10,12,16-pentamethyl-3-[(1E)-1-methyl-2-(2-methyl-4-thiazolyl)ethenyl]-17-oxa-4-azabicyclo[14.1.0]heptadecane-5,9-dione]
brain levels relative to peripheral tissue (ratio of brain-to-liver compound levels) [4]: modest brain levels relative to peripheral tissue | Brain-to-Liver Ratio ([4]; 1 h): 0.07 | Brain-to-Liver Ratio ([4]; 2 h): 0.11 | Brain-to-Liver Ratio ([4]; 6 h): 0.30 | Brain-to-Liver Ratio ([4]; 24 h): 1.2 | Kp at 1 h (in vivo; 12 mg/kg): 0.73 | Kp at 2 h (in vivo; 12 mg/kg): 2.1 | Kp at 6 h (in vivo; 12 mg/kg): 7 | Kp at 24 h (in vivo; 12 mg/kg): 30 | Kp at […] (in vivo; 12 mg/kg): 0.05 and 0.16 | concentration at 1 h (in vivo; 12 mg/kg, Brain conc): 284 nM | concentration at 2 h (in vivo; 12 mg/kg, Brain conc): 360 nM | concentration at 6 h (in vivo; 12 mg/kg, Brain conc): 371 nM | concentration at 24 h (in vivo; 12 mg/kg, Brain conc): 236 nM | concentration at 1 h (in vivo; 12 mg/kg, Plasma conc): 390 nM | concentration at 2 h (in vivo; 12 mg/kg, Plasma conc): 171 nM | concentration at 6 h (in vivo; 12 mg/kg, Plasma conc): 53 nM | concentration at 24 h (in vivo; 12 mg/kg, Plasma conc): 8 nM

CC(=O)O[C@H]1C(=O)[C@@]2(C)[C@H]([C@H](OC(=O)c3ccccc3)[C@]3(O)C[C@H](OC(=O)[C@H](O)[C@@H](NC(=O)c4ccccc4)c4ccccc4)C(C)=C1C3(C)C)[C@]1(OC(C)=O)CO[C@@H]1C[C@@H]2O [Paclitaxel, paclitaxel]
Tau pathology (spheroids) [5]: unaffected | microtubule numbers and axonal transport in the ventral roots of the spinal cord [5]: increased microtubule numbers and axonal transport | motor dysfunction [5]: reduced motor dysfunction | brain levels ([4]; 4 mg/kg): low | concentration at 1 h (in vivo; 4 mg/kg, Brain conc): 47 nM | concentration at 6 h (in vivo; 4 mg/kg, Brain conc): 16 nM | concentration at 24 h (in vivo; 4 mg/kg, Brain conc): 15 nM | Kp at 1 h (in vivo; 4 mg/kg, Brain-to-plasma Ratio): 0.1 | Kp at 6 h (in vivo; 4 mg/kg, Brain-to-plasma Ratio): 0.37 | Kp at 24 h (in vivo; 4 mg/kg, Brain-to-plasma Ratio): 1.25 | concentration at 1 h (in vivo; 4 mg/kg, Plasma conc): 447 nM | concentration at 6 h (in vivo; 4 mg/kg, Plasma conc): 43 nM | concentration at 24 h (in vivo; 4 mg/kg, Plasma conc): 12 nM

NAP: a peptide of sequence NAPVSIPQ
protection against paclitaxel-induced peripheral neuropathy [6]: able to protect against paclitaxel-induced peripheral neuropathy

— patent US8673949B2 (Bristol-Myers Squibb Company, priority 2008, dated 2014)
